The values below come from ChEMBL document CHEMBL1687764, “Contribution of BlaA and BlaB beta-lactamases to antibiotic susceptibility of Yersinia enterocolitica biovar 1B” (2010).

Converted amounts (≈) assume the structure as drawn.

Holding throughout (assay type): functional
Test [1] concerns Yersinia enterocolitica. Put plainly: Antimicrobial activity against beta-lactamase A and B-deficient Yersinia enterocolitica GY5718 after 20 hrs by Etest. The settings on record: GY5718, 20 h.
Test [2] deals with Yersinia enterocolitica. Put plainly: Antimicrobial activity against beta-lactamase A-deficient Yersinia enterocolitica GY5717 after 20 hrs by Etest. To be noted: GY5717, 20 h.
Test [3] relates to Yersinia enterocolitica. Put plainly: Antimicrobial activity against beta-lactamase B-deficient Yersinia enterocolitica GY5542 after 20 hrs by Etest. To be noted: GY5542, 20 h.
In test [4] the test system is Yersinia enterocolitica. Put plainly: Antimicrobial activity against Yersinia enterocolitica Biovar 1B 8081 after 20 hrs by Etest. To be noted: Biovar 1B 8081, 20 h.

On to `CC1(C)S[C@@H]2[C@H](NC(=O)[C@H](N)c3ccc(O)cc3)C(=O)N2[C@H]1C(=O)O` [AMOXICILLIN], for which the minimum inhibitory concentration (MIC) (as a rule, the lowest concentration found to suppress growth) in test [1] stood at 0.38 µg/mL (≈ 1.04 µM); in test [2], 1.5 µg/mL (≈ 4.1 µM); in test [3] it was 24 µg/mL (≈ 65.7 µM); in test [4], 24 µg/mL (≈ 65.7 µM).

As to `C[C@@H](O)[C@H]1C(=O)N2C(C(=O)O)=C(SCCNC=N)C[C@H]12` [IMIPENEM ANHYDROUS], the MIC in test [1], in test [2], in test [3] and in test [4] was 0.25 µg/mL (≈ 0.835 µM) throughout.

On to `CCN1CCN(C(=O)N[C@@H](C(=O)N[C@@H]2C(=O)N3[C@@H]2SC(C)(C)[C@@H]3C(=O)O)c2ccccc2)C(=O)C1=O` [PIPERACILLIN], for which the MIC worked out at 0.094 µg/mL (≈ 0.182 µM) in test [1], 0.19 µg/mL (≈ 0.367 µM) in test [2], 0.75 µg/mL (≈ 1.45 µM) in test [3] and 0.75 µg/mL (≈ 1.45 µM) in test [4].

For the molecule `CO/N=C(\C(=O)N[C@@H]1C(=O)N2C(C(=O)O)=C(COC(C)=O)CS[C@H]12)c1csc(N)n1` [CEFOTAXIME], the MIC in test [1] was found to be 0.012 µg/mL (≈ 0.0263 µM); in test [2] it was 0.023 µg/mL (≈ 0.0505 µM); in test [3] it was 0.016 µg/mL (≈ 0.0351 µM); in test [4] it was 0.023 µg/mL (≈ 0.0505 µM).

In the case of `CO/N=C(\C(=O)N[C@@H]1C(=O)N2C(C(=O)O)=C(CSc3nc(=O)c(O)nn3C)CS[C@H]12)c1csc(N)n1` [CEFTRIAXONE], the MIC was found to be 0.012 µg/mL (≈ 0.0216 µM) in test [1], 0.016 µg/mL (≈ 0.0289 µM) in test [2], 0.016 µg/mL (≈ 0.0289 µM) in test [3] and 0.023 µg/mL (≈ 0.0415 µM) in test [4].

Take `CC1(C)S[C@@H]2[C@H](NC(=O)Cc3ccccc3)C(=O)N2[C@H]1C(=O)O` [PENICILLIN G]: the MIC in test [1] stood at 1 µg/mL (≈ 2.99 µM); in test [2], 4 µg/mL (≈ 12 µM); in test [3] it was 24 µg/mL (≈ 71.8 µM); in test [4], 24 µg/mL (≈ 71.8 µM).

Consider `CC1(C)S[C@@H]2[C@H](NC(=O)[C@H](N)c3ccccc3)C(=O)N2[C@H]1C(=O)O` [AMPICILLIN], for which the MIC stood at 0.19 µg/mL (≈ 0.544 µM) in test [1], 0.5 µg/mL (≈ 1.43 µM) in test [2], 4 µg/mL (≈ 11.4 µM) in test [3] and 4 µg/mL (≈ 11.4 µM) in test [4].

For the molecule `CO/N=C(\C(=O)N[C@@H]1C(=O)N2C(C(=O)O)=C(COC(N)=O)CS[C@H]12)c1ccco1` [CEFUROXIME], the MIC in test [1] was found to be 0.5 µg/mL (≈ 1.18 µM); in test [2], 0.5 µg/mL (≈ 1.18 µM); in test [3], 0.75 µg/mL (≈ 1.77 µM); in test [4], 0.75 µg/mL (≈ 1.77 µM).
